Assay results taken from patent publication US20100099561A1, “HETEROBICYCLIC ALKYLTHIO-BRIDGED ISOXAZOLINES” (E.I. DU PONT DE NEMOURS AND COMPANY, priority 2008, published 2010).

Assays:
Format in all cases: in vivo
[1] = test system: large crabgrass (Digitaria sanguinalis); assay: Test B preemergence, large crabgrass; conditions: scale 0 to 100
Text: (§1) Seeds of plant species selected from blackgrass (Alopecurus myosuroides), downy bromegrass (Bromus tectorum), green foxtail (Setaria viridis), Italian ryegrass (Lolium multiflorum), wheat (Triticum aestivum), wild oat (Avena fatua), catchweed bedstraw (Galium aparine), bermudagrass (Cynodon dactylon), Surinam grass (Brachiaria decumbens), cocklebur (Xanthium strumarium), corn (Zea mays), large crabgrass (Digitaria sanguinalis), woolly cupgrass (Eriochloa villosa), giant foxtail (Setaria faberii), goosegrass (Eleusine indica), johnsongrass (Sorghum halepense), kochia (Kochia scoparia), lambsquarters (Chenopodium album), morningglory (Ipomoea coccinea), nightshade (eastern black nightshade, Solanum ptycanthum), yellow nutsedge (Cyperus esculentus), pigweed (Amaranthus retroflexus), ragweed (common ragweed, Ambrosia elatior), soybean (Glycine max), sunflower (common oilseed sunflower, Helianthus annuus), Russian thistle (Salsola kali), and velvetleaf (Abutilon theophrasti) were planted into a blend of loam soil and sand and treated preemergence with test compounds formulated in a non-phytotoxic solvent mixture which included a surfactant. Treated plants and controls were maintained in a greenhouse for 13 to 15 days, after which time all species were compared to controls and visually evaluated. Plant response ratings, summarized in Table B, are based on a scale of 0 to 100 where 0 is no effect and 100 is complete control. A dash (-) response means no test result.

[2] = test system: downy bromegrass (Bromus tectorum); assay: Test B preemergence, downy bromegrass; conditions: scale 0 to 100
Text: as §1

[3] = test system: morningglory (Ipomoea spp.); assay: Test A postemergence, morningglory; conditions: 0 to 100 scale (0 no effect, 100 complete control)
In short: (§2)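 Seeds planted in loam–sand blend; compounds in non-phytotoxic solvent with surfactant applied as directed preemergence soil spray, or postemergence to plants 2–10 cm tall at one- to two-leaf stage. After ~10 days in greenhouse, injury rated visually versus untreated controls on 0–100 scale (100 = complete control).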

[4] = test system: bermudagrass (Cynodon dactylon); assay: Test B preemergence, bermudagrass; conditions: scale 0 to 100
Text: as §1

[5] = test system: ragweed (common ragweed, Ambrosia elatior); assay: Test B preemergence, ragweed; conditions: scale 0 to 100
Text: as §1

[6] = test system: barnyardgrass (Echinochloa crus-galli); assay: Test A postemergence, barnyardgrass; conditions: 0 to 100 scale (0 no effect, 100 complete control)
In short: as §2

[7] = test system: morningglory (Ipomoea spp.); assay: Test A preemergence, morningglory; conditions: 0 to 100 scale (0 no effect, 100 complete control)
In short: as §2

soybean (Glycine max) = assay: Test B preemergence, soybean; conditions: Preemergence, scale 0 to 100
Text: as §1

[8] = test system: woolly cupgrass (Eriochloa villosa); assay: Test B preemergence, woolly cupgrass; conditions: scale 0 to 100
Text: as §1

[9] = test system: wheat (Triticum aestivum); assay: Test A preemergence, wheat; conditions: 0 to 100 scale (0 no effect, 100 complete control)
In short: as §2

[10] = test system: wheat (Triticum aestivum); assay: Test A postemergence, wheat; conditions: 0 to 100 scale (0 no effect, 100 complete control)
In short: as §2

[11] = test system: blackgrass (Alopecurus myosuroides); assay: Test B preemergence, blackgrass; conditions: scale 0 to 100
Text: as §1

[12] = test system: lambsquarters (Chenopodium album); assay: Test B preemergence, lambsquarters; conditions: scale 0 to 100
Text: as §1

[13] = test system: morningglory (Ipomoea coccinea); assay: Test B preemergence, morningglory; conditions: scale 0 to 100
Text: as §1

[14] = test system: Surinam grass (Brachiaria decumbens); assay: Test B preemergence, Surinam grass; conditions: Preemergence, scale 0 to 100
Text: as §1

wild oat (Avena fatua) = assay: Test B preemergence, wild oat; conditions: scale 0 to 100
Text: as §1

[15] = test system: velvetleaf (Abutilon theophrasti); assay: Test B preemergence, velvetleaf; conditions: Preemergence, scale 0 to 100
Text: as §1

[16] = test system: large crabgrass (Digitaria sanguinalis); assay: Test A postemergence, large crabgrass; conditions: 0 to 100 scale (0 no effect, 100 complete control)
In short: as §2

[17] = test system: nightshade (eastern black nightshade, Solanum ptycanthum); assay: Test B preemergence, nightshade; conditions: scale 0 to 100
Text: as §1

[18] = test system: Italian ryegrass (Lolium multiflorum); assay: Test B preemergence, Italian ryegrass; conditions: Preemergence, scale 0 to 100
Text: as §1

[19] = test system: pigweed (Amaranthus retroflexus); assay: Test B preemergence, pigweed; conditions: scale 0 to 100
Text: as §1

With `CC1(C)CC(S(=O)(=O)Cc2c(C(F)(F)F)nc3n(c2=O)CCC3)=NO1` [Compound 11, 3-[[(4,5-dihydro-5,5-dimethyl-3-isoxazolyl)sulfonyl]methyl]-7,8-dihydro-2-(trifluoromethyl)pyrrolo[1,2-α]pyrimidin-4(6H)-one] the “Plant response rating, Crabgrass, Large” value ([1]; 16 g ai/ha) was 65, the “Plant response rating, Crabgrass, Large” value ([1]; 31 g ai/ha) was 85 and the “Plant response rating, Crabgrass, Large” value ([1]; 62 g ai/ha) was 100. For the same compound, the “Plant response rating, Crabgrass, Large” value ([1]; 125 g ai/ha) was 100, the “Plant response rating, Bromegrass, Downy” value ([2]; 16 g ai/ha) was 0 and the “Plant response rating, Bromegrass, Downy” value ([2]; 31 g ai/ha) was 0. The “Plant response rating, Bromegrass, Downy” value ([2]; 62 g ai/ha) was 0, the “Plant response rating, Bromegrass, Downy” value ([2]; 125 g ai/ha) was 65 and the “Plant response rating, Morningglory” value ([3]; 125 g ai/ha) was 10. The “Plant response rating, Morningglory” value ([3]; 500 g ai/ha) was 60, the “Plant response rating, Bermudagrass” value ([4]; 16 g ai/ha) was 65 and the “Plant response rating, Bermudagrass” value ([4]; 31 g ai/ha) was 100. For the same compound, the “Plant response rating, Bermudagrass” value ([4]; 62 g ai/ha) was 100, the “Plant response rating, Bermudagrass” value ([4]; 125 g ai/ha) was 100 and the “Plant response rating, Ragweed” value ([5]; 16 g ai/ha) was 0. The “Plant response rating, Ragweed” value ([5]; 31 g ai/ha) was 40, the “Plant response rating, Ragweed” value ([5]; 62 g ai/ha) was 50 and the “Plant response rating, Ragweed” value ([5]; 125 g ai/ha) was 55. For the same compound, the “Plant response rating, Barnyardgrass” value ([6]; 125 g ai/ha) was 80, the “Plant response rating, Barnyardgrass” value ([6]; 500 g ai/ha) was 90 and the “Plant response rating, Morningglory” value ([7]; 125 g ai/ha) was 30. For the same compound, the “Plant response rating, Morningglory” value ([7]; 500 g ai/ha) was 90, the “Plant response rating, Soybean” value (soybean (Glycine max); 16 g ai/ha) was 0 and the “Plant response rating, Soybean” value (soybean (Glycine max); 31 g ai/ha) was 0. For the same compound, the “Plant response rating, Soybean” value (soybean (Glycine max); 62 g ai/ha) was 0, the “Plant response rating, Soybean” value (soybean (Glycine max); 125 g ai/ha) was 0 and the “Plant response rating, Cupgrass, Woolly” value ([8]; 16 g ai/ha) was 85. For the same compound, the “Plant response rating, Cupgrass, Woolly” value ([8]; 31 g ai/ha) was 100, the “Plant response rating, Cupgrass, Woolly” value ([8]; 62 g ai/ha) was 100 and the “Plant response rating, Cupgrass, Woolly” value ([8]; 125 g ai/ha) was 100. For the same compound, the “Plant response rating, Wheat” value ([9]; 125 g ai/ha) was 0, the “Plant response rating, Wheat” value ([9]; 500 g ai/ha) was 60 and the “Plant response rating, Wheat” value ([10]; 125 g ai/ha) was 20. The “Plant response rating, Wheat” value ([10]; 500 g ai/ha) was 60, the “Plant response rating, Blackgrass” value ([11]; 16 g ai/ha) was 0 and the “Plant response rating, Blackgrass” value ([11]; 31 g ai/ha) was 70. The “Plant response rating, Blackgrass” value ([11]; 62 g ai/ha) was 70, the “Plant response rating, Blackgrass” value ([11]; 125 g ai/ha) was 100 and the “Plant response rating, Lambsquarters” value ([12]; 16 g ai/ha) was 0. For the same compound, the “Plant response rating, Lambsquarters” value ([12]; 31 g ai/ha) was 0, the “Plant response rating, Lambsquarters” value ([12]; 62 g ai/ha) was 0 and the “Plant response rating, Lambsquarters” value ([12]; 125 g ai/ha) was 100. For the same compound, the “Plant response rating, Morningglory” value ([13]; 16 g ai/ha) was 0, the “Plant response rating, Morningglory” value ([13]; 31 g ai/ha) was 65 and the “Plant response rating, Morningglory” value ([13]; 62 g ai/ha) was 80. The “Plant response rating, Morningglory” value ([13]; 125 g ai/ha) was 95, the “Plant response rating, Surinam Grass” value ([14]; 16 g ai/ha) was 0 and the “Plant response rating, Surinam Grass” value ([14]; 31 g ai/ha) was 0. The “Plant response rating, Surinam Grass” value ([14]; 62 g ai/ha) was 0, the “Plant response rating, Surinam Grass” value ([14]; 125 g ai/ha) was 85 and the “Plant response rating, Oat, Wild” value (wild oat (Avena fatua); 16 g ai/ha) was 0. For the same compound, the “Plant response rating, Oat, Wild” value (wild oat (Avena fatua); 31 g ai/ha) was 10, the “Plant response rating, Oat, Wild” value (wild oat (Avena fatua); 62 g ai/ha) was 20 and the “Plant response rating, Oat, Wild” value (wild oat (Avena fatua); 125 g ai/ha) was 65. The “Plant response rating, Velvetleaf” value ([15]; 16 g ai/ha) was 0, the “Plant response rating, Velvetleaf” value ([15]; 31 g ai/ha) was 0 and the “Plant response rating, Velvetleaf” value ([15]; 62 g ai/ha) was 0. The “Plant response rating, Velvetleaf” value ([15]; 125 g ai/ha) was 65, the “Plant response rating, Crabgrass, Large” value ([16]; 125 g ai/ha) was 80 and the “Plant response rating, Crabgrass, Large” value ([16]; 500 g ai/ha) was 90. The “Plant response rating, Nightshade” value ([17]; 16 g ai/ha) was 0, the “Plant response rating, Nightshade” value ([17]; 31 g ai/ha) was 60 and the “Plant response rating, Nightshade” value ([17]; 62 g ai/ha) was 95. The “Plant response rating, Nightshade” value ([17]; 125 g ai/ha) was 98, the “Plant response rating, Ryegrass, Italian” value ([18]; 16 g ai/ha) was 0 and the “Plant response rating, Ryegrass, Italian” value ([18]; 31 g ai/ha) was 0. The “Plant response rating, Ryegrass, Italian” value ([18]; 62 g ai/ha) was 0, the “Plant response rating, Ryegrass, Italian” value ([18]; 125 g ai/ha) was 90 and the “Plant response rating, Pigweed” value ([19]; 16 g ai/ha) was 0. For the same compound, the “Plant response rating, Pigweed” value ([19]; 31 g ai/ha) was 0, the “Plant response rating, Pigweed” value ([19]; 62 g ai/ha) was 100 and the “Plant response rating, Pigweed” value ([19]; 125 g ai/ha) was 100.
